This note sets out measurements from patent US12606528B2, “Methods and materials for inhibiting NF-kB activity” (University of Pittsburgh - Of the Commonwealth System of …, priority 2019, dated 2026).

The test system of this test is NF-κB. Kind of test: NF-κB assay: THP1-NF-κB-LUC cells, LPS-stimulated secreted luciferase. The class given is cell-based. To be noted: THP1-NF-κB-LUC cells, LPS-stimulated; read-out: IC50 (NF-κB assay). The protocol: FIG. 1 contains line plots showing NF-κB activity of exemplified compounds. 25k THP1-NF-κB-LUC cells were dispensed into 384 well plate (per well). Cells were treated with compounds (2 μM and 0.2 μM) for 2 hours before addition of LPS (10 ng/mL) for 18 hours. Secreted luciferase activity were measured using quant-luc reagents (1 bag of luc reagent dilute to 40 mL, use 10 μL per well). Data were normalized to vehicle control and graphed. Structures of selected exemplified compounds are shown.
FIG. 2 contains heat charts showing NF-κB activity of exemplified compounds as a function of concentration. 25k THP1-NF-κB-LUC cells were dispensed into 384 well plate (per well). Cells were treated with compounds (with serial dilution) for 2 hours before addition of LPS (10 ng/ml) for 18 hours. Secreted luciferase activity were measured using quant-luc reagents (1 bag of luc reagent dilute to 40 mL, use 10 μL per well). Structures of selected exemplified compounds are shown.
25k THP1-NF-κB-LUC cells were dispensed into 384 well plate (per well). Cells were treated with compounds with various concentrations for 2 hours before addition of LPS (10 ng/mL) for 18 hours. Secreted luciferase activity were measured using quant-luc reagents (1 bag of luc reagent dilute to 40 mL, use 10 μL per well). Data were normalized to vehicle control and graphed. Compound IC50 towards inhibiting NF-κB were determined through Prism. Similarly, 10k human PBMCs cells were cultured in 384 well plate (per well). Cells were treated with compounds with various concentrations for 2 hours before addition of LPS (10 ng/ml) for 18 hours, and supernatants were collected and assayed for TNF ELISA. Compound IC50 towards inhibiting TNF release were determined through Prism. • Activity: “+”>10 μM, “++”>1 μM and <10 μM, “+++”>0.1 μM and <1 μM, “++++”<0.1 μM.

Some results are limits rather than exact numbers.

As for `CCN(CC)CCNC(=O)c1ccc2nc(-c3ccccc3)c(-c3ccccc3)nc2c1` [BC18428], the IC50 is below 0.1 µM. Next, `O=C(c1ccc2nc(-c3ccccc3)c(-c3ccccc3)nc2c1)N1CCOCC1` [BC18429]: below 0.1 µM. In the case of `Cc1cccc(-c2nc3ccc(C(=O)NCCN4CCCC4)cc3nc2-c2cccc(C)c2)c1` [BC18430], the half-maximal inhibitory concentration (IC50) lay within 1 to 10 µM. The result for `O=C(NC1CCCCC1)c1ccc2nc(-c3ccc(F)cc3)c(-c3ccc(F)cc3)nc2c1` [BC18431] reads 0.1 to 1 µM.

Take `CCCCNC(=O)c1ccc2nc(-c3ccccc3)c(-c3ccccc3)nc2c1` [BC18432]: the IC50 lay in the range of 0.1 to 1 µM. Take `Cc1ccc(CNC(=O)c2ccc3nc(-c4ccc(C)cc4)c(-c4ccc(C)cc4)nc3c2)cc1` [BC18433]: the IC50 was above 10 µM. On to `CCCN(Cc1ccc(C)cc1)C(=O)c1ccc2nc(-c3ccccc3)c(-c3ccccc3)nc2c1` [BC18434], for which the IC50 lay in the range of 0.1 to 1 µM. Next, `O=C(NCCc1ccccc1)c1ccc2nc(-c3ccc(F)cc3)c(-c3ccc(F)cc3)nc2c1` [BC18435]: 0.1 to 1 µM; `Cc1cccc(-c2nc3ccc(C(=O)N4CCN(c5ncccn5)CC4)cc3nc2-c2cccc(C)c2)c1` [BC18436]: 1 to 10 µM. Next, `O=C(NCCCN1CCOCC1)c1ccc2nc(-c3ccc(F)cc3)c(-c3ccc(F)cc3)nc2c1` [BC18437]: below 0.1 µM; `O=C(NCCCN1CCCC1)c1ccc2nc(-c3ccc(F)cc3)c(-c3ccc(F)cc3)nc2c1` [BC18438]: below 0.1 µM; `O=C(NC1CC1)c1ccc2nc(-c3ccccc3)c(-c3ccccc3)nc2c1` [BC18439]: below 0.1 µM. In the case of `CCCN1CCN(C(=O)c2ccc3nc(-c4ccccc4)c(-c4ccccc4)nc3c2)CC1` [BC18440], the IC50 is below 0.1 µM. For the compound `Cc1cccc(-c2nc3ccc(C(=O)NCCN4CCCCC4C)cc3nc2-c2cccc(C)c2)c1` (stereo not drawn) [BC18441], the IC50 lay within 1 to 10 µM.

As for `CC(C)CCNC(=O)c1ccc2nc(-c3ccc(F)cc3)c(-c3ccc(F)cc3)nc2c1` [BC18442], the IC50 is below 0.1 µM. The result for `CC(C)NC(=O)c1ccc2nc(-c3ccccc3)c(-c3ccccc3)nc2c1` [BC18443] reads below 0.1 µM; that for `Cc1ccc(-c2nc3ccc(C(=O)NCc4ccccc4)cc3nc2-c2ccc(C)cc2)cc1` [BC18444], above 10 µM; that for `Cc1cccc(CNC(=O)c2ccc3nc(-c4ccccc4)c(-c4ccccc4)nc3c2)c1` [BC18445], 0.1 to 1 µM. As to `Cc1cccc(-c2nc3ccc(C(=O)NCc4ccccc4)cc3nc2-c2cccc(C)c2)c1` [BC18446], the IC50 is above 10 µM. The result for `O=C(NCc1ccccn1)c1ccc2nc(-c3ccc(F)cc3)c(-c3ccc(F)cc3)nc2c1` [BC18447] reads below 0.1 µM; that for `O=C(NC1CC1)c1ccc2nc(-c3ccc(F)cc3)c(-c3ccc(F)cc3)nc2c1` [BC18448], below 0.1 µM; that for `O=C(NCCN1CCCC1)c1ccc2nc(-c3ccc(F)cc3)c(-c3ccc(F)cc3)nc2c1` [BC18449], below 0.1 µM. With `CNC(=O)c1ccc2nc(-c3ccccc3)c(-c3ccccc3)nc2c1` [BC18450], the half-inhibitory concentration (IC50) is below 0.1 µM.

On to `O=C(c1ccc2nc(-c3ccccc3)c(-c3ccccc3)nc2c1)N1CCN(c2ccc(F)cc2)CC1` [BC18451], for which the IC50 fell in the range of 0.1 to 1 µM. The result for `CCN1CCN(CCNC(=O)c2ccc3nc(-c4cccc(C)c4)c(-c4cccc(C)c4)nc3c2)CC1` [BC18452] reads 1 to 10 µM. Next, `COc1ccc(-c2nc3ccc(C(=O)NCCN4CCOCC4)cc3nc2-c2ccc(OC)cc2)cc1` [BC18453]: 1 to 10 µM; `CCCNC(=O)c1ccc2nc(-c3ccccc3)c(-c3ccccc3)nc2c1` [BC18454]: 0.1 to 1 µM. For the compound `Cc1ccc(-c2nc3ccc(C(=O)NCc4ccc(Cl)cc4)cc3nc2-c2ccc(C)cc2)cc1` [BC18455], the IC50 was above 10 µM.

Consider `O=C(NCCN1CCCCC1)c1ccc2nc(-c3ccc(F)cc3)c(-c3ccc(F)cc3)nc2c1` [BC18456], for which the IC50 is below 0.1 µM. Next, `Cc1cccc(-c2nc3ccc(C(=O)NCc4ccc(Cl)cc4)cc3nc2-c2cccc(C)c2)c1` [BC18457]: above 10 µM; `O=C(NCc1cccnc1)c1ccc2nc(-c3ccc(F)cc3)c(-c3ccc(F)cc3)nc2c1` [BC18458]: below 0.1 µM; `O=C(NCCCN1CCCC1=O)c1ccc2nc(-c3ccc(F)cc3)c(-c3ccc(F)cc3)nc2c1` [BC18459]: below 0.1 µM. On to `CN1CCN(CCNC(=O)c2ccc3nc(-c4ccc(F)cc4)c(-c4ccc(F)cc4)nc3c2)CC1` [BC18460], for which the IC50 was below 0.1 µM. The result for `O=C(NCCN1CCCCCC1)c1ccc2nc(-c3ccccc3)c(-c3ccccc3)nc2c1` [BC18461] reads below 0.1 µM; that for `O=C(c1ccc2nc(-c3ccccc3)c(-c3ccccc3)nc2c1)N1CCN(C(=O)c2ccco2)CC1` [BC18462], below 0.1 µM; that for `Cc1cccc(-c2nc3ccc(C(=O)NCCN4CCN(C)CC4)cc3nc2-c2cccc(C)c2)c1` [BC18463], 1 to 10 µM.

Take `O=C(NCCN1CCOCC1)c1ccc2nc(-c3ccccc3)c(-c3ccccc3)nc2c1` [BC18464]: the IC50 is below 0.1 µM. `CC(C)CCNC(=O)c1ccc2nc(-c3ccccc3)c(-c3ccccc3)nc2c1` [BC18465]: the IC50 fell in the range of 0.1 to 1 µM. Next, `Cc1ccc(-c2nc3ccc(C(=O)NCc4ccc(F)cc4)cc3nc2-c2ccc(C)cc2)cc1` [BC18466]: above 10 µM. For the compound `CC(CNC(=O)c1ccc2nc(-c3ccc(F)cc3)c(-c3ccc(F)cc3)nc2c1)c1ccccc1` (stereo not drawn) [BC18467], the IC50 lay within 0.1 to 1 µM. Next, `Cc1ccc(CNC(=O)c2ccc3nc(-c4cccc(C)c4)c(-c4cccc(C)c4)nc3c2)cc1` [BC18468]: above 10 µM; `CCN(CC)CCCNC(=O)c1ccc2nc(-c3ccc(F)cc3)c(-c3ccc(F)cc3)nc2c1` [BC18469]: below 0.1 µM; `COCCNC(=O)c1ccc2nc(-c3ccc(F)cc3)c(-c3ccc(F)cc3)nc2c1` [BC18470]: below 0.1 µM. For `NC(=O)C1CCN(C(=O)c2ccc3nc(-c4ccc(F)cc4)c(-c4ccc(F)cc4)nc3c2)CC1` [BC18471], the IC50 is below 0.1 µM. Turning to `CCN1CCN(CCCNC(=O)c2ccc3nc(-c4ccccc4)c(-c4ccccc4)nc3c2)CC1` [BC18472], the half-maximal inhibitory concentration (IC50) fell in the range of 0.1 to 1 µM. As for `CCN1CCN(C(=O)c2ccc3nc(-c4ccccc4)c(-c4ccccc4)nc3c2)CC1` [BC18473], the half-maximal inhibitory concentration (IC50) was below 0.1 µM. The result for `Cc1cccc(-c2nc3ccc(C(=O)NCCN(C)C4CCCCC4)cc3nc2-c2cccc(C)c2)c1` [BC18474] reads 1 to 10 µM; that for `O=C(NCc1ccccc1)c1ccc2nc(-c3ccccc3)c(-c3ccccc3)nc2c1` [BC18475], above 10 µM; that for `O=C(c1ccc2nc(-c3ccccc3)c(-c3ccccc3)nc2c1)N1CCN(c2ccccn2)CC1` [BC18476], 0.1 to 1 µM. The result for `CCOc1ccc(-c2nc3ccc(C(=O)NCCN(C)C)cc3nc2-c2ccc(OCC)cc2)cc1` [BC18477] reads 1 to 10 µM. With `CN(C)c1ccc(CNC(=O)c2ccc3nc(-c4ccc(F)cc4)c(-c4ccc(F)cc4)nc3c2)cc1` [BC18478], the IC50 was in the range of 0.1 to 1 µM. The result for `Cc1cccc(-c2nc3ccc(C(=O)NC(C)C)cc3nc2-c2cccc(C)c2)c1` [BC18479] reads 1 to 10 µM; that for `CN(C)CCNC(=O)c1ccc2nc(-c3ccc(F)cc3)c(-c3ccc(F)cc3)nc2c1` [BC18480], below 0.1 µM. The result for `O=C(NCc1cccs1)c1ccc2nc(-c3ccc(F)cc3)c(-c3ccc(F)cc3)nc2c1` [BC18481] reads below 0.1 µM. Next, `CN1CCN(C(=O)c2ccc3nc(-c4ccc(F)cc4)c(-c4ccc(F)cc4)nc3c2)CC1` [BC18482]: below 0.1 µM.

For the compound `CC1CCCCN1CCNC(=O)c1ccc2nc(-c3ccccc3)c(-c3ccccc3)nc2c1` (stereo not drawn) [BC18483], the IC50 was below 0.1 µM. `Cc1cccc(-c2nc3ccc(C(=O)NCCN(C)C)cc3nc2-c2cccc(C)c2)c1` [BC18484]: the IC50 lay within 1 to 10 µM. Consider `Cc1cccc(-c2nc3ccc(C(=O)NCCN4CCCCC4)cc3nc2-c2cccc(C)c2)c1` [BC18485], for which the IC50 lay in the range of 1 to 10 µM. Next, `Cc1ccc(CNC(=O)c2ccc3nc(-c4ccccc4)c(-c4ccccc4)nc3c2)cc1` [BC18486]: above 10 µM; `CCOC(=O)N1CCN(C(=O)c2ccc3nc(-c4ccccc4)c(-c4ccccc4)nc3c2)CC1` [BC18487]: below 0.1 µM. Next, `CCOc1ccc(-c2nc3ccc(C(=O)NCCN(C)Cc4ccccc4)cc3nc2-c2ccc(OCC)cc2)cc1` [BC18488]: 1 to 10 µM; `Cc1ccc(S(=O)(=O)c2nc(-c3ccccc3)oc2S(=O)(=O)c2ccc(C)cc2)cc1` [BC18500]: below 0.1 µM. The result for `CC(=O)CSc1oc(-c2ccccc2)nc1S(=O)(=O)c1ccc(Cl)cc1` [BC18501] reads above 10 µM; that for `CSc1oc(-c2ccccc2)nc1S(=O)(=O)c1ccc(F)cc1` [BC18502], above 10 µM.

With `CC(=O)CSc1oc(-c2ccc(F)cc2)nc1S(=O)(=O)c1ccccc1` [BC18503], the IC50 lay within 1 to 10 µM. As for `O=S(=O)(c1ccccc1)c1nc(-c2ccc(F)cc2)oc1SCc1ccccc1F` [BC18504], the IC50 lay within 1 to 10 µM.

As a reminder, the IC50 is the midpoint of a concentration-inhibition curve.
